target: c-Kit kinase (Homo sapiens (Human), UniProt P10721); experiment: c-Kit biochemical assay (AlphaScreen kinase activity)
Summary of the method: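 AlphaScreen: c-Kit phosphorylates biotin-(E4Y)3 (100 nM) at 10 μM ATP, pH 7.2 HEPES buffer with Mg/Mn, 5% DMSO, 1 h room temperature; streptavidin donor and PY30 acceptor beads detect product. Second format: 100 μM ATP, 30 nM biotin-(E4Y)10, pH 7.5. IC50 from 8-point 1:3 dilution curves.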

Sequence of c-Kit kinase (P10721 26-976): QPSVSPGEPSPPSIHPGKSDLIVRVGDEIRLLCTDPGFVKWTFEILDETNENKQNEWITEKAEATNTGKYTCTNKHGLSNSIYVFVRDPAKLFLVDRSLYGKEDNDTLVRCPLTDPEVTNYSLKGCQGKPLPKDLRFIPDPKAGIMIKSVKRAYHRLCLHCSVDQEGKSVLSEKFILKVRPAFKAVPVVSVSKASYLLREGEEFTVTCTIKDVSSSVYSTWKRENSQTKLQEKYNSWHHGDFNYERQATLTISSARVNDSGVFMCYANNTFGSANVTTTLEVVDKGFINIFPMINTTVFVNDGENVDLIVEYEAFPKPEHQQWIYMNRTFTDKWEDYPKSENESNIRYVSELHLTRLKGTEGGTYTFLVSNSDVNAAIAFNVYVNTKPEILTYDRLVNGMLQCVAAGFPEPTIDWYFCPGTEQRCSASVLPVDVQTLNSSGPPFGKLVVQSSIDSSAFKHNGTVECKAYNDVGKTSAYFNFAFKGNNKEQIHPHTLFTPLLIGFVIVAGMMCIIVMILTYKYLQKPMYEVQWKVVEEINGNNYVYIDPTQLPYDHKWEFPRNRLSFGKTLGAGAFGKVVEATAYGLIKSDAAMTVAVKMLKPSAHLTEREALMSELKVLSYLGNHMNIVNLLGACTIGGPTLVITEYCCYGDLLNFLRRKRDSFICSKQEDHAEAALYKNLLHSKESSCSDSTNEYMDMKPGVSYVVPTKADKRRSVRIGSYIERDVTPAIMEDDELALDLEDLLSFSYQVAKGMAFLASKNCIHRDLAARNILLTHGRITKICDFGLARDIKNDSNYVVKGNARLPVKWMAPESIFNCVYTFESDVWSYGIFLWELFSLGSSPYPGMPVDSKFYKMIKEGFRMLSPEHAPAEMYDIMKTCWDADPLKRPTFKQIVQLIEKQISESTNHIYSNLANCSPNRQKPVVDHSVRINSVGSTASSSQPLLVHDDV

Q: How did the IC50 turn out when `Cc1cc2c(N3CCC(C)(c4nc(C)c(-c5ccc(OC(F)F)cc5)[nH]4)CC3)ncnc2[nH]1` [P-3196, 4-[4-[5-[4-(difluoromethoxy)phenyl]-4-methyl-1H-imidazol-2-yl]-4-methyl-1-piperidyl]-6-methyl-7H-pyrrolo[2,3-d]pyrimidine] was run?
A: The IC50 was 1 to 10 µM.

Q: Which IC50 does the source give for `CCc1[nH]c(C2CCN(c3ncnc4[nH]c(-c5cnn(C(F)F)c5)cc34)CC2)nc1C` [P-3197, 6-[1-(difluoromethyl)pyrazol-4-yl]-4-[4-(5-ethyl-4-methyl-1H-imidazol-2-yl)-1-piperidyl]-7H-pyrrolo[2,3-d]pyrimidine] here?
A: Its IC50 is 1 to 10 µM.

Q: How did the IC50 turn out when `CCc1[nH]c(C2CCN(c3ncnc4[nH]c(-c5ccc(C#N)cc5)cc34)CC2)nc1C` [P-3198, 4-[4-[4-(5-ethyl-4-methyl-1H-imidazol-2-yl)-1-piperidyl]-7H-pyrrolo[2,3-d]pyrimidin-6-yl]benzonitrile] was run?
A: Its IC50 is 1 to 10 µM.

Q: For `COc1ccc(-c2[nH]c(C3(C)CCN(c4ncnc5[nH]c(-c6ccc(C(=O)O)cc6)cc45)CC3)nc2C)cc1F` [P-3199, 4-[4-[4-[5-(3-fluoro-4-methoxy-phenyl)-4-methyl-1H-imidazol-2-yl]-4-methyl-1-piperidyl]-7H-pyrrolo[2,3-d]pyrimidin-6-yl]benzoic acid], which IC50 is on record?
A: The IC50 was 0.0001 to 1 µM.

Q: With `Cc1nc(C2(C)CCN(c3ncnc4[nH]nc(C)c34)CC2)[nH]c1-c1ccc(Cl)cc1` [P-3200, 4-[4-[5-(4-chlorophenyl)-4-methyl-1H-imidazol-2-yl]-4-methyl-1-piperidyl]-3-methyl-1H-pyrazolo[3,4-d]pyrimidine] as the compound, how does the IC50 read?
A: Its IC50 is 1 to 10 µM.

Q: Which IC50 does the source give for `Cc1nc(C2(C)CCN(c3ncnc4[nH]nc(C)c34)CC2)[nH]c1-c1cccc(OC(F)F)c1` [P-3201, 4-[4-[5-[3-(difluoromethoxy)phenyl]-4-methyl-1H-imidazol-2-yl]-4-methyl-1-piperidyl]-3-methyl-1H-pyrazolo[3,4-d]pyrimidine] here?
A: Its IC50 is 1 to 10 µM.

Q: How did the IC50 turn out when `COc1ccc(-c2[nH]c(C3(C)CCN(c4ncnc5[nH]nc(C)c45)CC3)nc2C)cc1F` [P-3202, 4-[4-[5-(3-fluoro-4-methoxy-phenyl)-4-methyl-1H-imidazol-2-yl]-4-methyl-1-piperidyl]-3-methyl-1H-pyrazolo[3,4-d]pyrimidine] was run?
A: Its IC50 is 1 to 10 µM.

Q: Which IC50 does the source give for `Cc1nc(C2(C)CCN(c3ncnc4[nH]nc(C)c34)CC2)[nH]c1-c1ccc2c(c1)OC(F)(F)O2` [P-3203, 4-[4-[5-(2,2-difluoro-1,3-benzodioxol-5-yl)-4-methyl-1H-imidazol-2-yl]-4-methyl-1-piperidyl]-3-methyl-1H-pyrazolo[3,4-d]pyrimidine] here?
A: Its IC50 is 1 to 10 µM.

Q: Which IC50 does the source give for `Fc1ccc(-c2cc3c(N4CCC(c5nnc(-c6ccc(F)cc6)[nH]5)CC4)ncnc3[nH]2)cc1` [P-3206, 6-(4-fluorophenyl)-4-[4-[5-(4-fluorophenyl)-4H-1,2,4-triazol-3-yl]-1-piperidyl]-7H-pyrrolo[2,3-d]pyrimidine] here?
A: Its IC50 is 1 to 10 µM.

Q: How did the IC50 turn out when `COc1cc(-c2cc3c(N4CCC(c5nnc(-c6cccc(OC(F)F)c6)[nH]5)CC4)ncnc3[nH]2)ccn1` [P-3207, 4-[4-[5-[3-(difluoromethoxy)phenyl]-4H-1,2,4-triazol-3-yl]-1-piperidyl]-6-(2-methoxy-4-pyridyl)-7H-pyrrolo[2,3-d]pyrimidine] was run?
A: The IC50 was 1 to 10 µM.

Q: `CCOc1ccc(-c2[nH]c(C3(C)CCN(c4ncnc5[nH]c(-c6ccc(OC)nc6)cc45)CC3)nc2C)cc1F` [P-3209, 4-[4-[5-(4-ethoxy-3-fluoro-phenyl)-4-methyl-1H-imidazol-2-yl]-4-methyl-1-piperidyl]-6-(6-methoxy-3-pyridyl)-7H-pyrrolo[2,3-d]pyrimidine] was tested. Which IC50 did it give?
A: The IC50 was 0.0001 to 1 µM.

Q: With `CCOc1ccc(-c2[nH]c(C3(C)CCN(c4ncnc5[nH]c(-c6cnn(C(F)F)c6)cc45)CC3)nc2C)cc1F` [P-3210, 6-[1-(difluoromethyl)pyrazol-4-yl]-4-[4-[5-(4-ethoxy-3-fluoro-phenyl)-4-methyl-1H-imidazol-2-yl]-4-methyl-1-piperidyl]-7H-pyrrolo[2,3-d]pyrimidine] as the compound, how does the IC50 read?
A: The IC50 was 0.0001 to 1 µM.

Q: Which IC50 does the source give for `COc1ccc(-c2[nH]c(C3(C)CCN(c4ncnc5[nH]c(-c6ccc(C#N)nc6)cc45)CC3)nc2C)cc1F` [P-3211, 5-[4-[4-[5-(3-fluoro-4-methoxy-phenyl)-4-methyl-1H-imidazol-2-yl]-4-methyl-1-piperidyl]-7H-pyrrolo[2,3-d]pyrimidin-6-yl]pyridine-2-carbonitrile] here?
A: The IC50 was 1 to 10 µM.

Q: How did the IC50 turn out when `COc1ccc(-c2[nH]c(C3(C)CCN(c4ncnc5[nH]c(-c6ccc(C(N)=O)cc6)cc45)CC3)nc2C)cc1F` [P-3212, 4-[4-[4-[5-(3-fluoro-4-methoxy-phenyl)-4-methyl-1H-imidazol-2-yl]-4-methyl-1-piperidyl]-7H-pyrrolo[2,3-d]pyrimidin-6-yl]benzamide] was run?
A: Its IC50 is 0.0001 to 1 µM.

Q: How did the IC50 turn out when `COc1ccc(-c2[nH]c(C3(C)CCN(c4ncnc5[nH]c(-c6ccc(NS(C)(=O)=O)cc6)cc45)CC3)nc2C)cc1F` [P-3213, N-[4-[4-[4-[5-(3-fluoro-4-methoxy-phenyl)-4-methyl-1H-imidazol-2-yl]-4-methyl-1-piperidyl]-7H-pyrrolo[2,3-d]pyrimidin-6-yl]phenyl]methanesulfonamide] was run?
A: Its IC50 is 0.0001 to 1 µM.

Q: With `COc1ccc(-c2[nH]c(C3(C)CCN(c4ncnc5[nH]c(-c6ccc(OCC(=O)O)cc6)cc45)CC3)nc2C)cc1F` [P-3214, 2-[4-[4-[4-[5-(3-fluoro-4-methoxy-phenyl)-4-methyl-1H-imidazol-2-yl]-4-methyl-1-piperidyl]-7H-pyrrolo[2,3-d]pyrimidin-6-yl]phenoxy]acetic acid] as the compound, how does the IC50 read?
A: The IC50 was 0.0001 to 1 µM.

Q: For `COc1ccc(-c2[nH]c(C3(C)CCN(c4ncnc5[nH]c(-c6ccc(N7CCOCC7)nc6)cc45)CC3)nc2C)cc1F` [P-3215, 4-[5-[4-[4-[5-(3-fluoro-4-methoxy-phenyl)-4-methyl-1H-imidazol-2-yl]-4-methyl-1-piperidyl]-7H-pyrrolo[2,3-d]pyrimidin-6-yl]-2-pyridyl]morpholine], which IC50 is on record?
A: Its IC50 is 0.0001 to 1 µM.

Q: `COc1ccc(-c2[nH]c(C3(C)CCN(c4ncnc5[nH]c(-c6ccc(C(N)=O)cc6)cc45)CC3)nc2C)cc1C` [P-3216, 4-[4-[4-[5-(4-methoxy-3-methyl-phenyl)-4-methyl-1H-imidazol-2-yl]-4-methyl-1-piperidyl]-7H-pyrrolo[2,3-d]pyrimidin-6-yl]benzamide] was tested. Which IC50 did it give?
A: The IC50 was 0.0001 to 1 µM.

Q: Which IC50 does the source give for `COc1ccc(-c2[nH]c(C3(C)CCN(c4ncnc5[nH]c(-c6ccc(OCC(=O)O)cc6)cc45)CC3)nc2C)cc1C` [P-3217, 2-[4-[4-[4-[5-(4-methoxy-3-methyl-phenyl)-4-methyl-1H-imidazol-2-yl]-4-methyl-1-piperidyl]-7H-pyrrolo[2,3-d]pyrimidin-6-yl]phenoxy]acetic acid] here?
A: The IC50 was 0.0001 to 1 µM.

Q: How did the IC50 turn out when `CNC(=O)c1ccc(-c2cc3c(N4CCC(C)(c5nc(C)c(-c6ccc(OC)c(C)c6)[nH]5)CC4)ncnc3[nH]2)cn1` [P-3218, 5-[4-[4-[5-(4-methoxy-3-methyl-phenyl)-4-methyl-1H-imidazol-2-yl]-4-methyl-1-piperidyl]-7H-pyrrolo[2,3-d]pyrimidin-6-yl]-N-methyl-pyridine-2-carboxamide] was run?
A: Its IC50 is 0.0001 to 1 µM.

Q: Which IC50 does the source give for `COc1ccc(-c2[nH]c(C3(C)CCN(c4ncnc5[nH]c(-c6ccc(N7CCOCC7)nc6)cc45)CC3)nc2C)cc1C` [P-3219, 4-[5-[4-[4-[5-(4-methoxy-3-methyl-phenyl)-4-methyl-1H-imidazol-2-yl]-4-methyl-1-piperidyl]-7H-pyrrolo[2,3-d]pyrimidin-6-yl]-2-pyridyl]morpholine] here?
A: Its IC50 is 0.0001 to 1 µM.

Q: With `CNC(=O)c1ccc(-c2cc3c(N4CCC(C)(c5nc(C)c(-c6ccc(OC)c(F)c6)[nH]5)CC4)ncnc3[nH]2)cn1` [P-3220, 5-[4-[4-[5-(3-fluoro-4-methoxy-phenyl)-4-methyl-1H-imidazol-2-yl]-4-methyl-1-piperidyl]-7H-pyrrolo[2,3-d]pyrimidin-6-yl]-N-methyl-pyridine-2-carboxamide] as the compound, how does the IC50 read?
A: The IC50 was 0.0001 to 1 µM.

Q: How did the IC50 turn out when `COc1cccc(-c2[nH]c(C3(C)CCN(c4ncnc5[nH]c(-c6ccc(OCC(=O)O)cc6)cc45)CC3)nc2C)c1` [P-3221, 2-[4-[4-[4-[5-(3-methoxyphenyl)-4-methyl-1H-imidazol-2-yl]-4-methyl-1-piperidyl]-7H-pyrrolo[2,3-d]pyrimidin-6-yl]phenoxy]acetic acid] was run?
A: Its IC50 is 0.0001 to 1 µM.

Q: `CNC(=O)c1ccc(-c2cc3c(N4CCC(C)(c5nc(C)c(-c6cccc(OC)c6)[nH]5)CC4)ncnc3[nH]2)cn1` [P-3222, 5-[4-[4-[5-(3-methoxyphenyl)-4-methyl-1H-imidazol-2-yl]-4-methyl-1-piperidyl]-7H-pyrrolo[2,3-d]pyrimidin-6-yl]-N-methyl-pyridine-2-carboxamide] was tested. Which IC50 did it give?
A: Its IC50 is 0.0001 to 1 µM.

Q: How did the IC50 turn out when `COc1cccc(-c2[nH]c(C3(C)CCN(c4ncnc5[nH]c(-c6ccc(N7CCOCC7)nc6)cc45)CC3)nc2C)c1` [P-3223, 4-[5-[4-[4-[5-(3-methoxyphenyl)-4-methyl-1H-imidazol-2-yl]-4-methyl-1-piperidyl]-7H-pyrrolo[2,3-d]pyrimidin-6-yl]-2-pyridyl]morpholine] was run?
A: The IC50 was 0.0001 to 1 µM.

Q: `CCOc1ccc(-c2[nH]c(C3(C)CCN(c4ncnc5[nH]c(-c6ccc(OCC(=O)O)cc6)cc45)CC3)nc2C)cc1` [P-3224, 2-[4-[4-[4-[5-(4-ethoxyphenyl)-4-methyl-1H-imidazol-2-yl]-4-methyl-1-piperidyl]-7H-pyrrolo[2,3-d]pyrimidin-6-yl]phenoxy]acetic acid] was tested. Which IC50 did it give?
A: The IC50 was 0.0001 to 1 µM.

Q: How did the IC50 turn out when `COc1cccc(-c2[nH]c(C3(C)CCN(c4ncnc5[nH]c(-c6ccc(C(N)=O)cc6)cc45)CC3)nc2C)c1` [P-3225, 4-[4-[4-[5-(3-methoxyphenyl)-4-methyl-1H-imidazol-2-yl]-4-methyl-1-piperidyl]-7H-pyrrolo[2,3-d]pyrimidin-6-yl]benzamide] was run?
A: Its IC50 is 0.0001 to 1 µM.

Q: With `CCOc1ccc(-c2[nH]c(C3(C)CCN(c4ncnc5[nH]c(-c6ccc(C(=O)NC)nc6)cc45)CC3)nc2C)cc1` [P-3226, 5-[4-[4-[5-(4-ethoxyphenyl)-4-methyl-1H-imidazol-2-yl]-4-methyl-1-piperidyl]-7H-pyrrolo[2,3-d]pyrimidin-6-yl]-N-methyl-pyridine-2-carboxamide] as the compound, how does the IC50 read?
A: Its IC50 is 0.0001 to 1 µM.

From US9771369B2, “Compounds and methods for kinase modulation, and indications therefor” (Plexxikon Inc., priority 2014, dated 2017)
